Data on six compounds can be found in PMC9951879, “Synthesis of New Shogaol Analogues as NRF2 Activators and Evaluation of Their Anti-Inflammatory Activity, Modes of Action and Metabolic Stability” (Antioxidants, 2023).

In one data set the target is T1, KEAP1-NRF2 interaction (Homo sapiens, UniProt Q14145).
T1 construct: purchased BPS Bioscience
Nature of the data set: KEAP1-Nrf2 inhibitor screening, fluorescence polarisation assay. It is filed as binding. To be noted: KEAP1 Kelch domain, read-out: IC50, NRF2-KEAP1 inhibition. How it is done: The KEAP1-Nrf2 inhibitor screening assay kit (BPS Bioscience, San Diego, California, USA) was used to determine the effect of STCs in inhibiting KEAP1-NRF2 interaction following the manufacturer’s protocol and our reported method. The STC solutions were diluted with the assay buffer, and 5 μL of the STC solutions were incubated at room temperature for 30 min in the peptide mixture containing 0.5 μL NRF2 peptide (1 μM) and 20 μL KEAP1 (15 ng/μL). The fluorescence polarisation (FP) was measured using a microplate reader at λex 485 nm and λem 530 nm. The following equation was used to determine the per cent KEAP1-NRF2 inhibitory effect of the STCs. Keap1−Nrf2 inhbitory activity %=1−Relative FP of STC/Relative FP of postive control×100
Background: Polarisation of emitted light reports the rotation of a fluorescent probe.

In data set [1] the test system is NAD(P)H quinone oxidoreductase 1 (NQO1). Briefly: Prochaska microtiter plate bioassay, NQO1 induction in Hepa-1c1c7 cells. The note with it: Mus musculus, Hepa-1c1c7, 48 h, Hepa-1c1c7 cells, 48 h; read-out: CD (concentration required to double the NQO1 level). The data set is classed as cell-based, mouse. How it is done:
The effect of shogaol thiophene compounds (STCs) on NRF2 activation is determined by measuring the NAD(P)H quinone oxidoreductase 1 (NQO1) inducer activity, as reported in our previous studies. The mouse hepatoma cells (Hepa-1c1c7, 1 × 10^4 per well) were incubated with STCs (10, 1, 0.1, 0.01, and 0.001 µM) for 48 h. The cells were lysed using digitonin (0.8 mg/mL and 2 mM EDTA; Acros, UK), and the protein concentration was determined using Bradford’s assay kit (Thermo Fisher Scientific, USA). The cell lysate was incubated with a reaction mixture of 0.5 M Tris-Cl buffer (Calbiochem, USA), 7.5 mM FAD (Acros, UK), 150 mM glucose-6-phosphate (Calbiochem, San Diego, CA, USA), 2 U/mL glucose-6-phosphate dehydrogenase (Calbiochem, USA), 50 mM NADP+ (Sigma Aldrich, USA), 25 mM menadione (Sigma Aldrich, USA), and 0.7 mM MTT (Sigma Aldrich, USA) at 37 °C for 5 min. The absorbance was recorded at 610 nm using a microplate reader (Spectramax M3, Molecular Devices, San Jose, CA, USA), and the values were normalised to the total protein content.

The nature of data set [2]: Liver microsomal stability, rat. The data set is classed as in vitro ADME. To be noted: rat liver microsomes, 1 μM (verapamil 0.5 μM). How it is done:
(§1) The liver microsomes of humans, rats, and mice were purchased from Merck (human, #M0567; rat, #M9066; mouse, #M9441). The metabolic stability of 6-shogaol and STCs (1 μM effective concentration; 5 μL) was mixed with liver microsomes (0.5 mg mL^−1; 445 μL) in a microcentrifuge tube. Verapamil (0.5 μM) was used as the positive control. The microsome and compound mixture were shaken on a plate shaker for 5 min to ensure homogeneity. NADPH (1 mM; 50 μL) was added to the mixture to start the metabolic reaction. The reaction mixture was incubated at 37 °C for 0, 3, 6, 15, 30, 45, and 60 min. The mixture (20 μL) was sampled and quenched with 180 μL of acetonitrile with internal standard (Donepezil 50 ng/mL) to terminate the metabolic reaction at each time point. Ultrapure water (80 μL) was added, and contents in the microcentrifuge tubes were centrifuged at 3800 rpm at 4 °C for 10 min. […] Each set of experiments was repeated three times in human, rat, and mouse liver microsomes. The concentration of the compounds versus time was plotted to determine the elimination rate constant (Kel). The intrinsic clearance (Clint) and half-life (t1/2) were calculated using the following equations.
(In general: Microsomes from liver hold many membrane-bound enzymes, among them those of drug oxidation.)

Data set [3] in a line: Liver microsomal stability, mouse. The data set is classed as in vitro ADME. To be noted: mouse liver microsomes, 1 μM (verapamil 0.5 μM). How it is done:
as §1

Data set [4] is described as follows: Liver microsomal stability, human. It is filed as in vitro ADME. To be noted: human liver microsomes, 1 μM (verapamil 0.5 μM). How it is done:
as §1

For the next data set, the target named is T2, GSK-3β (Homo sapiens, UniProt P49841).
T2 construct: purchased Promega
T2 sequence (P49841 whole entry): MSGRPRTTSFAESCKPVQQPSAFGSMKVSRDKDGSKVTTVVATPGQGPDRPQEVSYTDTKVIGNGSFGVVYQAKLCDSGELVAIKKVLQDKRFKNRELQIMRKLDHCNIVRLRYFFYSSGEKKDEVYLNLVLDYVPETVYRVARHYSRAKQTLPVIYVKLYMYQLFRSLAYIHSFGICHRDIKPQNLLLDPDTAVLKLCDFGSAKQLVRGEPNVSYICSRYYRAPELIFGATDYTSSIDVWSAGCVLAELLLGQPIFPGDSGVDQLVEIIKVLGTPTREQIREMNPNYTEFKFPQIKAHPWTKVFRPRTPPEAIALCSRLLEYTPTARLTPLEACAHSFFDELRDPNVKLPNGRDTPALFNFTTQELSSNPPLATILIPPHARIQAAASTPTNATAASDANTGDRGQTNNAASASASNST
Nature of the data set: GSK-3β kinase ADP-Glo assay. It is filed as biochemical. To be noted: ATP 25 μM, read-out: IC50, GSK-3β enzyme activity. How it is done: The effect of STCs on GSK-3β activity was determined using GSK-3β kinase enzyme (Promega, WI, USA) and ADP-Glo^TM kinase assay (Promega, USA) following the manufacturer’s protocol and reported method. The STCs were dissolved in the kinase buffer to prepare different concentrations (10, 1, 0.1, 0.01, and 0.001 μM). One microliter of the test compounds was added to each well (384 well plate), followed by the addition of 2 μL of GSK-3β kinase (1 ng), 2 μL of the GSK-3β substrate (0.4 μg), and 2 μL of the ATP (25 μM), and incubated for 60 min. Then, 5 μL of ADP-Glo^TM reagent was added and incubated further for 40 min. Then 10 μL of kinase detection reagent was added and incubated for 30 min. The luminescence was recorded using a SpectraMax®L microplate reader (Molecular Devices, San Jose, CA, USA). The IC50 (concentration of the test compound required to produce half-maximal […]) from dose-response curves using non-linear regression analysis using GraphPad Prism (9.5.0; San Diego, CA, USA) software.
A general note: In ADP-Glo the light output rises with the ADP produced.

T1 sequence (Q14145 2-624 limits assumed): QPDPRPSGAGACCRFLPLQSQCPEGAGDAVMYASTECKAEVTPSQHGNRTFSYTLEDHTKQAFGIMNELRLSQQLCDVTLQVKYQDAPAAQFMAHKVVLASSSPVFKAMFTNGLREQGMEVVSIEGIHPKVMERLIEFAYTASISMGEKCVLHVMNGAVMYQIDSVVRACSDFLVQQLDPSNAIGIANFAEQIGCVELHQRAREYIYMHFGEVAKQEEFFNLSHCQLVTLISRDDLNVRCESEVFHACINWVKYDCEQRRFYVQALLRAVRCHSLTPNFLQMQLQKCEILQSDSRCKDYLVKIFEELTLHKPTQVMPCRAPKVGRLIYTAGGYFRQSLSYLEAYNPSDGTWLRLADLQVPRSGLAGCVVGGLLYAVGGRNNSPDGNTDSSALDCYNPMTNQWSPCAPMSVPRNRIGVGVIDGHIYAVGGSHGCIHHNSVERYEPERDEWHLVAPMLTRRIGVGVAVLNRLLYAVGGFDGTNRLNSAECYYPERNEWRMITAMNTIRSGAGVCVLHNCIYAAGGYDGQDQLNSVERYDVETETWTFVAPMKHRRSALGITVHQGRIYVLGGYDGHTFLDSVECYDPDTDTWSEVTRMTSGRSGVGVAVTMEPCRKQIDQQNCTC

Regarding `COc1cc(CCC(=O)/C=C/c2ccsc2)ccc1O` [STC1, (E)-5-(4-Hydroxy-3-methoxyphenyl)-1(thiophen-3-yl)pent-1-en-3-one], the figures for the IC50 on KEAP1-NRF2 interaction and at GSK-3β were 860 ± 110 nM and 420 ± 80 nM, respectively. Further, the EC (2-fold NQO1 induction) in data set [1] came to 4.19 ± 0.44 µM. The Clint in data set [2] was 10.63 ± 1.25 mL/min/g liver; in data set [3], 11.24 ± 1.43 mL/min/g liver; in data set [4] it was 7.15 ± 1.24 mL/min/g liver. Besides, the half-life at 1 μM is 6.85 min in data set [2], 6.47 min in data set [3] and 10.2 min in data set [4].
Turning to `COc1cc(CCC(=O)/C=C/c2cccs2)ccc1O` [STC2, (E)-5-(4-Hydroxy-3-methoxyphenyl)-1-(thiophen-2-yl)pent-1-en-3-one], the IC50 at KEAP1-NRF2 interaction was found to be 630 nM; on GSK-3β, 320 nM. Also, the EC (2-fold NQO1 induction) in data set [1] amounted to 2.65 ± 0.27 µM. Moreover, the Clint in data set [2] is on record as 9.46 ± 1.85 mL/min/g liver; in data set [3], 10.64 ± 1.66 mL/min/g liver; in data set [4], 6.85 ± 1.62 mL/min/g liver. Further, the half-life at 1 μM in data set [2] turned out to be 7.69 min; in data set [3] it was 6.84 min; in data set [4] it was 10.6 min.
For `COc1cc(CCC(=O)/C=C/c2sccc2C)ccc1O` [STC3, (E)-5-(4-Hydroxy-3-methoxyphenyl)-1-(3-methylthiophen-2-yl)pent-1-en-3-one], the values for the concentration for half-maximal inhibition (IC50) on KEAP1-NRF2 interaction and at GSK-3β were 540 nM and 240 nM, respectively. Moreover, the EC (2-fold NQO1 induction) in data set [1] was 1.84 ± 0.15 µM. In addition, the results for the Clint in data set [2], in data set [3] and in data set [4] were 9.65 ± 1.54 mL/min/g liver, 9.27 ± 2.14 mL/min/g liver and 6.18 ± 1.34 mL/min/g liver, respectively. For the same compound, the half-life at 1 μM in data set [2] turned out to be 7.54 min; in data set [3], 7.85 min; in data set [4], 11.8 min.
For `COc1cc(CCC(=O)/C=C/c2cc(Br)cs2)ccc1O` [STC4, (E)-5-(4-Hydroxy-3-methoxyphenyl)-1-(4-bromothiophen-2-yl)pent-1-en-3-one], the half-inhibitory concentration (IC50) was determined as 280 nM on KEAP1-NRF2 interaction and 130 nM on GSK-3β. Besides, the EC (2-fold NQO1 induction) in data set [1] came to 0.43 ± 0.09 µM. For the same compound, the Clint in data set [2] was 8.79 ± 1.94 mL/min/g liver; in data set [3], 9.67 ± 1.23 mL/min/g liver; in data set [4] it was 6.35 ± 1.79 mL/min/g liver. In addition, the half-life at 1 μM in data set [2] was determined as 8.28 min; in data set [3], 7.52 min; in data set [4], 11.5 min.
Take `COc1cc(CCC(=O)/C=C/c2ccc(Br)s2)ccc1O` [STC6, (E)-5-(4-Hydroxy-3-methoxyphenyl)-1-(5-bromothiophen-2-yl)pent-1-en-3-one]: the half-inhibitory concentration (IC50) on KEAP1-NRF2 interaction turned out to be 290 nM; on GSK-3β, 140 nM. In data set [1], the EC (2-fold NQO1 induction) came out at 0.42 ± 0.11 µM. Further, the Clint is listed as 8.17 ± 1.74 mL/min/g liver in data set [2], 7.23 ± 1.34 mL/min/g liver in data set [3] and 5.32 ±1.08 mL/min/g liver in data set [4]. For the same compound, the values for the half-life at 1 μM in data set [2], in data set [3] and in data set [4] were 8.91 min, 10.1 min and 13.7 min, respectively.
Take `CCc1ccc(/C=C/C(=O)CCc2ccc(O)c(OC)c2)s1` [STC7, (E)-5-(4-Hydroxy-3-methoxyphenyl)-1-(5-ethylthiophen-2-yl)pent-1-en-3-one]: the concentration for half-maximal inhibition (IC50) at KEAP1-NRF2 interaction is 350 nM; on GSK-3β it was 190 nM. For the same compound, in data set [1], the EC (2-fold NQO1 induction) amounted to 1.48 ± 0.34 µM. Besides, the Clint amounted to 8.52 ± 1.16 mL/min/g liver in data set [2], 7.85 ± 2.51 mL/min/g liver in data set [3] and 6.27 ± 1.44 mL/min/g liver in data set [4]. Besides, the half-life at 1 μM in data set [2] worked out at 8.54 min; in data set [3], 9.27 min; in data set [4], 11.6 min.

For orientation: IC50 means the concentration at which inhibition is half-maximal. The half-life is how long it takes for the measured level to halve. Higher therefore signals slow loss.
